Legend:
[1] = target: T1, human folate receptor (FR)-α (Homo sapiens, UniProt P15328); experiment: Relative affinity assay (displacement of 3H-folic acid on KB cells); assay type: binding; conditions: 100 nM 3H-folic acid, 1 h at 37° C., normalized against 1 for FA
T1 construct: endogenous in cells; host or cells: KB cells (human HeLa carcinoma contaminant)
Experimental: Cell lines utilized to evaluate EC2319 in in-vitro studies were as follows: KB human HeLa carcinoma contaminant expressing the human folate receptor (FR)-α, RAW264.7 mouse macrophage-derived tumor cells expressing a murine FR, THP-1-FRβ human monocytic leukemia engineered to express the human FR-β. All cells were grown in a folate-free RPMI1640 medium (Gibco BRL) (FFRPMI) containing 10% heat-inactivated fetal calf serum (HIFCS) and antibiotics, and maintained under a 5% CO2 atmosphere using standard cell culture techniques.
EC2319 FR-binding affinity was determined in a relative affinity assay using KB cells as the source of FR. Briefly, KB cells (1×10^5 cells/well) were plated in 24-well plates at 18 to 24 h before use. The cells were then incubated for 1 h at 37° C. with 100 nM of ^3H-folic acid (Moravek Inc.) plus a series of 3.16-fold dilutions of EC2319 or FA at 0.01-31.6 μM in triplicates. At the end of incubation, the cells were washed 3 times with a phosphate-buffered saline (PBS, pH 7.4) and lysed for 5 min at room temperature in 0.5 mL of 0.25 N NaOH. 0.45 mL of the cell lysate was taken from each well and counted in a scintillation counter. […] See result in FIG. 1.

[2] = system: mouse RAW264.7 macrophage cells; experiment: Cell viability (XTT) assay, RAW264.7; assay type: cell-based
Experimental: All cells were grown in a folate-free RPMI1640 medium (Gibco BRL) (FFRPMI) containing 10% heat-inactivated fetal calf serum (HIFCS) and antibiotics, and maintained under a 5% CO2 atmosphere using standard cell culture techniques.
After a 2 h exposure, the drug-containing media were replaced and the cells were allowed to incubate further for 72 h. The cell viability was assessed by adding XTT (2,3-bis(2-methoxy-4-nitro-5-sulfo-phenyl)-2H-tetrazolium-5-carboxanilide) to the culture medium for 3 h following the manufacturer's instructions. All results were expressed as % absorbance (minus background) relative to the untreated control cells. See results in FIG. 2A and FIG. 2B.
Importantly, the observed anti-proliferative effect was 100% competable in the presence of excess FA, indicating a FR-specific mode of action.

T1 sequence (P15328 25-234): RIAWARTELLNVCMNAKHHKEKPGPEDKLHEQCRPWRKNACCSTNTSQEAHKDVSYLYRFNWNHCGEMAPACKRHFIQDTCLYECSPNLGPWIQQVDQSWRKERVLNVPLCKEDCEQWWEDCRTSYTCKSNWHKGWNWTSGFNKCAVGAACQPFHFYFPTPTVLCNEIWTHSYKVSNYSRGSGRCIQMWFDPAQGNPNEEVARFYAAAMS

**Q.** With COC(=O)[C@H](CSSC(C)(C)[C@H](NC(=O)[C@H](CCC(=O)NC[C@H](O)[C@@H](O)[C@H](O)[C@H](O)CO)NC(=O)[C@H](CCC(=O)O)NC(=O)[C@H](CCC(=O)NC[C@H](O)[C@@H](O)[C@H](O)[C@H](O)CO)NC(=O)[C@H](CCC(=O)O)NC(=O)[C@H](CCC(=O)NC[C@H](O)[C@@H](O)[C@H](O)[C@H](O)CO)NC(=O)CC[C@H](NC(=O)c1ccc(NCc2cnc3nc(N)[nH]c(=O)c3n2)cc1)C(=O)O)C(=O)O)NC(=O)CC[C@H](NC(=O)c1ccc(NCc2cnc3nc(N)nc(N)c3n2)cc1)C(=O)O [EC2319] as the compound, how does the relative affinity [1] read?
**A.** 0.493

**Q.** What about the “concentrations with cytostatic effect” value [2] of the same compound?
**A.** ≥ 10 nM

**Q.** And the “anti-proliferative effect competable in the presence of excess FA” value ([2]; 100-fold excess FA)?
**A.** 100%

**Q.** And the IC50 ([2]; 2 h exposure, 72 h chase, XTT, read-out: relative IC50, inhibition of cell proliferation)?
**A.** ~2.9 nM

Reference: US20180280528A1, “ANTIFOLATE CONJUGATES FOR TREATING INFLAMMATION” (ENDOCYTE, INC., priority 2015, published 2018)
